Three compounds from patent publication US8664243B2, “Sulfonamide compound and crystal thereof” (Asahi Kasei Pharma Corporation, priority 2007, dated 2014) can be followed below.

Holding throughout (assay type): physicochemical
Series [1] is described as follows: Thermal stability test (sealed glass vial, dark place, 60° C.). Conditions: for Appearance / Water content / Purity: 60° C., dark, sealed vial; for Purity: HPLC. As for the experimental part:
Thermal stability of Compound 1 or the substance in the form of a salt can be evaluated by, for example, sealing a sample in a glass vial or the like, storing the vial under a severe temperature condition such as 40 to 80° C. in a dark place for a given period of time, and then observing or measuring appearance, purity, water content and the like of Compound 1 or the substance in the form of a salt. Change of purity before and after storage especially serves as an important index of thermal stability. For example, the evaluation is preferably performed under a storage condition of 60° C. • High performance liquid chromatography apparatus: LC-10A Series (Shimadzu) or Agilent 1100 series (Agilent Technologies) • Solution concentration: 500 μg/ml • Injection: 10 μl • Detector: Ultraviolet absorptiometer (measurement wavelength: 245 nm) • Column: XBridge Shield RP18 5 μm, internal diameter: 4.6 mm, length: 15 cm (Waters) • Column temperature: Constant temperature around 40° C. • Mobile phase A: 20 mmol/l Sodium phosphate buffer (pH 7.0) • Mobile phase B: Acetonitrile • Liquid feeding program: A concentration gradient was formed by changing the mixing ratio of the mobile phase A and the mobile phase B as shown in Table 1. • Flow rate: 1.0 ml/minute • Water content measurement apparatus: AQ-7 (Hiranuma Sangyo) • Sample amount: 5 mg • Anolyte: Aqualyte RS (Sigma-Aldrich) • Catholyte: Aqualyte CN (Sigma-Aldrich) The monohydrochloride obtained by the method described in Example 3, the monohydrobromide obtained by the method described in Example 4, and the dihydrochloride as a control were weighed in a glass vial in an amount of 40 mg each, and the glass vial was sealed. Each sample was stored in a dark place at 60° C. for 2 to 4 weeks, and after the storage, appearance was evaluated by visual inspection. Further, purity was measured under the conditions of Test Example 7, and water content was measured under the conditions of Test Example 8.

Series [2] is described as follows: Hygroscopicity Test 1 (open glass weighing dish, dark place, 25° C. and 84% RH). The settings on record: for Appearance / Water content / Purity: 25° C. and 84% RH, dark, open; for Purity: HPLC. On the procedure:
Hygroscopicity of Compound 1 or the substance in the form of a salt can be evaluated by putting a sample on a glass weighing dish, storing the dish in a dark place for a given period of time in an open state at a temperature of 25 to 40° C. under a humidification condition of about 75 to 94% relative humidity, and then observing or measuring appearance, purity, water content and the like of Compound 1 or the substance in the form of a salt. Increase of water content before and after storage especially serves as an important hygroscopic index. For example, the evaluation is preferably performed after storage conditions of 25° C. and 84% RH. • High performance liquid chromatography apparatus: LC-10A Series (Shimadzu) or Agilent 1100 series (Agilent Technologies) • Solution concentration: 500 μg/ml • Injection: 10 μl • Detector: Ultraviolet absorptiometer (measurement wavelength: 245 nm) • Column: XBridge Shield RP18 5 μm, internal diameter: 4.6 mm, length: 15 cm (Waters) • Column temperature: Constant temperature around 40° C. • Mobile phase A: 20 mmol/l Sodium phosphate buffer (pH 7.0) • Mobile phase B: Acetonitrile • Liquid feeding program: A concentration gradient was formed by changing the mixing ratio of the mobile phase A and the mobile phase B as shown in Table 1. • Flow rate: 1.0 ml/minute • Water content measurement apparatus: AQ-7 (Hiranuma Sangyo) • Sample amount: 5 mg • Anolyte: Aqualyte RS (Sigma-Aldrich) • Catholyte: Aqualyte CN (Sigma-Aldrich) The monohydrochloride obtained by the method described in Example 3, the monohydrobromide obtained by the method described in Example 4, and the dihydrochloride as a control were weighed on a glass weighing dish in an amount of 40 mg each, and each sample was stored in a dark place at 25° C. and 84% RH for 2 to 4 weeks. After the storage, appearance was evaluated by visual inspection. Further, purity was measured under the conditions of Test Example 7, and water content was measured under the conditions of Test Example 8.

Series [3] can be described thus: Measurement of water content (coulometric titration method). Conditions: as prepared, sample 5 mg. From the text: For evaluation of purity of Compound 1 or the substance in the form of a salt, the area percentage method based on HPLC is convenient. For evaluation of water content of Compound 1 or the substance in the form of a salt, the volumetric titration method, the coulometric titration method described in Japanese Pharmacopoeia, General Test Methods, “Water Determination”, the loss on drying test and the like can be used. When sample weight is small, the coulometric titration method can be preferably chosen.

Series [4] can be described thus: Hygroscopicity Test 2 (25° C. and 84% RH; free base, salts and salt mixtures). Conditions: for Appearance / Water content / Purity: 25° C. and 84% RH, dark; for Purity: HPLC. On the procedure: Hygroscopicity of Compound 1 or the substance in the form of a salt can be evaluated by putting a sample on a glass weighing dish, storing the dish in a dark place for a given period of time in an open state at a temperature of 25 to 40° C. under a humidification condition of about 75 to 94% relative humidity, and then observing or measuring appearance, purity, water content and the like of Compound 1 or the substance in the form of a salt. Increase of water content before and after storage especially serves as an important hygroscopic index. For example, the evaluation is preferably performed after storage conditions of 25° C. and 84% RH. • High performance liquid chromatography apparatus: LC-10A Series (Shimadzu) or Agilent 1100 series (Agilent Technologies) • Solution concentration: 500 μg/ml • Injection: 10 μl • Detector: Ultraviolet absorptiometer (measurement wavelength: 245 nm) • Column: XBridge Shield RP18 5 μm, internal diameter: 4.6 mm, length: 15 cm (Waters) • Column temperature: Constant temperature around 40° C. • Mobile phase A: 20 mmol/l Sodium phosphate buffer (pH 7.0) • Mobile phase B: Acetonitrile • Liquid feeding program: A concentration gradient was formed by changing the mixing ratio of the mobile phase A and the mobile phase B as shown in Table 1. • Flow rate: 1.0 ml/minute • Water content measurement apparatus: AQ-7 (Hiranuma Sangyo) • Sample amount: 5 mg • Anolyte: Aqualyte RS (Sigma-Aldrich) • Catholyte: Aqualyte CN (Sigma-Aldrich) Compound 1 obtained by a method similar to the method described in Example 1 (two kinds of lots), the monohydrochloride obtained by the method described in Example 3, the dihydrochloride, and mixtures of the monohydrochloride and the dihydrochloride at ratios of 9:1, 8:2, 6:4, 4:6 and 2:8 were weighed on a glass weighing dish in an amount of each 40 mg, and each sample was stored in a dark place at 25° C. and 84% RH for 2 to 4 weeks. After the storage, appearance was evaluated by visual inspection. Further, purity was measured under the conditions of Test Example 7, and water content was measured under the conditions of Test Example 8.

The mark [5] stands for this setting: after storage at 60° C. for 4 weeks.
The mark [6] stands for this setting: after storage at 25° C. and 84% RH for 4 weeks.
The mark [7] stands for this setting: storage for two weeks at 25° C. and 84% RH.

For `Br.CN[C@H]1CCN(S(=O)(=O)c2cccc3cncc(Cl)c23)C1` [Monohydrobromide, (S)-1-(4-chloro-5-isoquinolinesulfonyl)-3-(methylamino)pyrrolidine monohydrobromide], the Appearance entry in series [1] (after 2 weeks), in series [1] (after 4 weeks), in series [1] (before storage), in series [2] (after 2 weeks), in series [2] (after 4 weeks) and in series [2] (before storage) was “White” in each case. The Water content in series [1] (after 2 weeks) came out at 0.05%; in series [1] (after 4 weeks) it was 0.05%; in series [1] (before storage), 0.14%; in series [2] (after 2 weeks) it was 0.05%; in series [2] (after 4 weeks) it was 0.05%; in series [2] (before storage), 0.14%. This compound also gave a Water content in series [3] of 0.14%. For the same compound, the Purity in series [1] (after 2 weeks) stood at 99.9%; in series [1] (after 4 weeks), 99.8%; in series [1] (before storage) it was 99.7%; in series [2] (after 2 weeks), 99.9%; in series [2] (after 4 weeks), 99.7%; in series [2] (before storage), 99.7%. The “Thermal stability compared with the dihydrochloride” value in series [1] (Test Example 9, 60° C.) is on record as “more satisfactory thermal stability”. Also, the Change of appearance entry in series [1] (setting [5]) and in series [2] (setting [6]) was “no change of appearance” each time. The Degradation of purity entry in series [1] (setting [5]) and in series [2] (setting [6]) was “no degradation of purity” throughout. In addition, the “Hygroscopicity compared with the dihydrochloride” value in series [2] (Test Example 10, 25° C. and 84% RH) is reported as “remarkably lower hygroscopicity”. Also, the “Increase of water content” value in series [2] (setting [6]) is reported as “no substantial increase of water content”.
Take `CN[C@H]1CCN(S(=O)(=O)c2cccc3cncc(Cl)c23)C1` [Compound 1, (S)-1-(4-chloro-5-isoquinolinesulfonyl)-3-(methylamino)pyrrolidine]: the Appearance result in series [4] (after 2 weeks), in series [4] (after 4 weeks) and in series [4] (before storage) was “Slightly” in each case. Also, the Water content in series [4] (after 2 weeks, listed as Compound 1 (Lot 1)) is given as 5.7%; in series [4] (after 2 weeks, listed as Compound 1 (Lot 2)), 7.6%; in series [4] (after 4 weeks, listed as Compound 1 (Lot 1)), 8.1%; in series [4] (after 4 weeks, listed as Compound 1 (Lot 2)), 9.1%; in series [4] (before storage, listed as Compound 1 (Lot 1)), 0.9%; in series [4] (before storage, listed as Compound 1 (Lot 2)), 1.7%. Besides, the Purity in series [4] (after 2 weeks), in series [4] (after 4 weeks) and in series [4] (before storage) was 99.9% in each case. Further, in series [4] (both lots, after storage at 25° C. and 84% RH for 4 weeks), the Moisture absorption result is on record as “further moisture absorption”.
With `CN[C@H]1CCN(S(=O)(=O)c2cccc3cncc(Cl)c23)C1.Cl.Cl` [Dihydrochloride, (S)-1-(4-chloro-5-isoquinolinesulfonyl)-3-(methylamino)pyrrolidine dihydrochloride, reference compound], the Appearance result in series [1] (after 2 weeks) is “Pale brown”; in series [1] (before storage), “White”; in series [2] (after 2 weeks) it was “Brown”; in series [2] (before storage) it was “White”; in series [4] (after 2 weeks) it was “Pale”; in series [4] (before storage) it was “White”. Further, the Water content in series [1] (after 2 weeks) was 2.93%; in series [1] (before storage) it was 3.76%; in series [2] (after 2 weeks), 15.24%; in series [2] (before storage), 3.76%; in series [4] (after 2 weeks), 19.8%; in series [4] (before storage), 5.2%. The Purity in series [1] (after 2 weeks) was determined as 99.5%; in series [1] (before storage), 98.1%; in series [2] (after 2 weeks), 99.3%; in series [2] (before storage), 98.1%; in series [4] (after 2 weeks), 99.9%; in series [4] (before storage), 100.0%. Besides, the Change of appearance result in series [1] (after storage at 60° C. for 2 weeks, dihydrochloride) is “change of appearance”; in series [2] (after storage at 25° C. and 84% RH for 2 weeks, dihydrochloride), “apparent change of appearance”. Moreover, the “Changes in physicochemical properties” value in series [1] (stability test at 60° C. for two weeks) and in series [2] (setting [7]) was “changes in physicochemical properties” each time. The Moisture absorption result in series [2] (after storage at 25° C. and 84% RH for 2 weeks) is listed as “marked moisture absorption”. Besides, in series [2] (setting [7]), the Hygroscopicity entry is given as “remarkable hygroscopicity”.
